Experimental data as given in patent publication US10954269B2, “Anti-inflammatory tripeptides” (Dr. August Wolff Gmbh & Co. KG Arzneimittel, priority 2013, dated 2021).

Legend:
[1] = test system: primary human T-cells; assay: Cytokine secretion on protein level in activated primary human T-cells (13-plex FACS / Luminex, supernatant); format: cell-based; details: for IL-1 cytokine concentration / IL-2 cytokine concentration / IL-4 cytokine concentration / IL-5 cytokine concentration / IL-6 cytokine concentration / IL-9 cytokine concentration / IL-10 cytokine concentration / IL-12p70 cytokine concentration / IL-13 cytokine concentration / IL-17 cytokine concentration / IL-22 cytokine concentration / TNF-α cytokine concentration / INF-α cytokine concentration: substance 10^−9M
In short: (§1)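 First, T-cells are isolated from healthy donors' blood. Next, they and HaCaT keratinocytes are activated for 48 h with PMA/Ionomycin or IFN-γ in the presence of tripeptides. Finally, secreted cytokines are quantified in supernatants by 13-plex FACS at 48 and 72 h.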

[2] = test system: human keratinocyte cell line (HaCaT); assay: Cytokine secretion on protein level in activated human keratinocyte cell line HaCaT (13-plex FACS / Luminex, supernatant); format: cell-based; details: for IL-1 cytokine concentration / IL-2 cytokine concentration / IL-4 cytokine concentration / IL-5 cytokine concentration / IL-6 cytokine concentration / IL-9 cytokine concentration / IL-10 cytokine concentration / IL-12p70 cytokine concentration / IL-13 cytokine concentration / IL-17 cytokine concentration / IL-22 cytokine concentration / TNF-α cytokine concentration / IFN-γ cytokine concentration: substance 10^−9M
In short: as §1

[3] = test system: primary murine T-cells; assay: Cytokine secretion on protein level in activated primary murine T-cells (13-plex FACS / Luminex, supernatant); format: cell-based, C57BL/6 mice; details: for IL-1 cytokine concentration / IL-2 cytokine concentration / IL-4 cytokine concentration / IL-5 cytokine concentration / IL-6 cytokine concentration / IL-10 cytokine concentration / IL-13 cytokine concentration / IL-17 cytokine concentration / IL-21 cytokine concentration / IL-22 cytokine concentration / IL-27 cytokine concentration / TNF-α cytokine concentration / IFN-γ cytokine concentration: substance 10^−9M
In short: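 T-cells from secondary lymphatic organs of naïve C57BL/6 mice, stimulated with PMA/Ionomycin or IFN-γ; supernatant cytokines measured by 13-plex FACS 48 h and 72 h after stimulation. In another run, PMA/Ionomycin-stimulated cells received compounds at 10^−7, 10^−9 and 10^−11 M, with IFN-γ, IL-17 and IL-10 measured by Luminex.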

[4] = primary human T-cells stimulated with IFN-γ
[5] = primary human T-cells stimulated with PBS
[6] = primary human T-cells stimulated with PMA/Ionomycin
[7] = HaCaT stimulated with PMA/Ionomycin
[8] = primary murine T-cells stimulated with IFN-γ
[9] = primary murine T-cells stimulated with PBS
[10] = primary murine T-cells stimulated with PMA/Ionomycin

Substance: H-(L)-Nle-(L)-Pro-Aib-OH [Example 12]
- secretion / expression of pro-inflammatory cytokines (supernatant) ([1]; activated primary human T-cells): able to reduce
- IL-1 cytokine concentration [1, 4]: 44.77 pg/mL
- IL-2 cytokine concentration [1, 4]: 0 pg/mL
- IL-4 cytokine concentration [1, 4]: 0 pg/mL
- IL-5 cytokine concentration [1, 4]: 0 pg/mL
- IL-6 cytokine concentration [1, 4]: 60.44 pg/mL
- IL-9 cytokine concentration [1, 4]: 7.67 pg/mL
- IL-10 cytokine concentration [1, 4]: 84.25 pg/mL
- IL-12p70 cytokine concentration [1, 4]: 0 pg/mL
- IL-13 cytokine concentration [1, 4]: 0 pg/mL
- IL-17 cytokine concentration [1, 4]: 0 pg/mL
- IL-22 cytokine concentration [1, 4]: 0 pg/mL
- TNF-α cytokine concentration [1, 4]: 41.38 pg/mL
- IL-1 cytokine concentration [1, 5]: 0 pg/mL
- IL-2 cytokine concentration [1, 5]: 0 pg/mL
- IL-4 cytokine concentration [1, 5]: 0 pg/mL
- IL-5 cytokine concentration [1, 5]: 0 pg/mL
- IL-6 cytokine concentration [1, 5]: 91.86 pg/mL
- IL-9 cytokine concentration [1, 5]: 0 pg/mL
- IL-10 cytokine concentration [1, 5]: 189.65 pg/mL
- IL-12p70 cytokine concentration [1, 5]: 0 pg/mL
- IL-13 cytokine concentration [1, 5]: 0 pg/mL
- IL-17 cytokine concentration [1, 5]: 104.68 pg/mL
- IL-22 cytokine concentration [1, 5]: 0 pg/mL
- INF-α cytokine concentration [1, 5]: 0 pg/mL
- TNF-α cytokine concentration [1, 5]: 41.38 pg/mL
- IL-1 cytokine concentration [1, 6]: 548.85 pg/mL
- IL-2 cytokine concentration [1, 6]: 2751.28 pg/mL
- IL-4 cytokine concentration [1, 6]: 73.38 pg/mL
- IL-5 cytokine concentration [1, 6]: 328.24 pg/mL
- IL-6 cytokine concentration [1, 6]: 1046.79 pg/mL
- IL-9 cytokine concentration [1, 6]: 286.89 pg/mL
- IL-10 cytokine concentration [1, 6]: 992.02 pg/mL
- IL-12p70 cytokine concentration [1, 6]: 0 pg/mL
- IL-13 cytokine concentration [1, 6]: 1026.08 pg/mL
- IL-17 cytokine concentration [1, 6]: 1355.07 pg/mL
- IL-22 cytokine concentration [1, 6]: 0 pg/mL
- INF-α cytokine concentration [1, 6]: 9454.26 pg/mL
- TNF-α cytokine concentration [1, 6]: 2985.72 pg/mL
- activity (reduction of pro-inflammatory cytokines) relative to K(D)PT ([1]; second experiment, all three cellular models): comparable
- IL-1 cytokine concentration ([2]; HaCaT stimulated with IFN-γ): 9.31 pg/mL
- IL-2 cytokine concentration ([2]; HaCaT stimulated with IFN-γ): 0 pg/mL
- IL-4 cytokine concentration ([2]; HaCaT stimulated with IFN-γ): 69.91 pg/mL
- IL-5 cytokine concentration ([2]; HaCaT stimulated with IFN-γ): 0 pg/mL
- IL-6 cytokine concentration ([2]; HaCaT stimulated with IFN-γ): 297.09 pg/mL
- IL-9 cytokine concentration ([2]; HaCaT stimulated with IFN-γ): 0 pg/mL
- IL-10 cytokine concentration ([2]; HaCaT stimulated with IFN-γ): 0 pg/mL
- IL-12p70 cytokine concentration ([2]; HaCaT stimulated with IFN-γ): 0 pg/mL
- IL-13 cytokine concentration ([2]; HaCaT stimulated with IFN-γ): 195.68 pg/mL
- IL-17 cytokine concentration ([2]; HaCaT stimulated with IFN-γ): 56.13 pg/mL
- IL-22 cytokine concentration ([2]; HaCaT stimulated with IFN-γ): 0 pg/mL
- TNF-α cytokine concentration ([2]; HaCaT stimulated with IFN-γ): 0 pg/mL
- IFN-γ cytokine concentration ([2]; HaCaT stimulated with PBS): 0 pg/mL
- IL-1 cytokine concentration ([2]; HaCaT stimulated with PBS): 0 pg/mL
- IL-2 cytokine concentration ([2]; HaCaT stimulated with PBS): 0 pg/mL
- IL-4 cytokine concentration ([2]; HaCaT stimulated with PBS): 0 pg/mL
- IL-5 cytokine concentration ([2]; HaCaT stimulated with PBS): 0 pg/mL
- IL-6 cytokine concentration ([2]; HaCaT stimulated with PBS): 56.87 pg/mL
- IL-9 cytokine concentration ([2]; HaCaT stimulated with PBS): 4.96 pg/mL
- IL-10 cytokine concentration ([2]; HaCaT stimulated with PBS): 69.45 pg/mL
- IL-12p70 cytokine concentration ([2]; HaCaT stimulated with PBS): 0 pg/mL
- IL-13 cytokine concentration ([2]; HaCaT stimulated with PBS): 193.75 pg/mL
- IL-17 cytokine concentration ([2]; HaCaT stimulated with PBS): 0 pg/mL
- IL-22 cytokine concentration ([2]; HaCaT stimulated with PBS): 0 pg/mL
- TNF-α cytokine concentration ([2]; HaCaT stimulated with PBS): 5.55 pg/mL
- IFN-γ cytokine concentration [2, 7]: 22.77 pg/mL
- IL-1 cytokine concentration [2, 7]: 0 pg/mL
- IL-2 cytokine concentration [2, 7]: 0 pg/mL
- IL-4 cytokine concentration [2, 7]: 0 pg/mL
- IL-5 cytokine concentration [2, 7]: 0 pg/mL
- IL-6 cytokine concentration [2, 7]: 158.4 pg/mL
- IL-9 cytokine concentration [2, 7]: 0 pg/mL
- IL-10 cytokine concentration [2, 7]: 86.04 pg/mL
- IL-12p70 cytokine concentration [2, 7]: 0 pg/mL
- IL-13 cytokine concentration [2, 7]: 0 pg/mL
- IL-17 cytokine concentration [2, 7]: 25.98 pg/mL
- IL-22 cytokine concentration [2, 7]: 0 pg/mL
- TNF-α cytokine concentration [2, 7]: 0 pg/mL
- secretion / expression of pro-inflammatory cytokines (supernatant) ([2]; activated human keratinocytes): able to reduce
- secretion / expression of pro-inflammatory cytokines (supernatant) ([3]; activated primary murine T-cells): able to reduce
- IL-1 cytokine concentration [3, 8]: 86.08 pg/mL
- IL-2 cytokine concentration [3, 8]: 88.9 pg/mL
- IL-4 cytokine concentration [3, 8]: 34.22 pg/mL
- IL-5 cytokine concentration [3, 8]: 221.57 pg/mL
- IL-6 cytokine concentration [3, 8]: 110.7 pg/mL
- IL-10 cytokine concentration [3, 8]: 1130.01 pg/mL
- IL-13 cytokine concentration [3, 8]: 0 pg/mL
- IL-17 cytokine concentration [3, 8]: 72.21 pg/mL
- IL-21 cytokine concentration [3, 8]: 40.2 pg/mL
- IL-22 cytokine concentration [3, 8]: 42.98 pg/mL
- IL-27 cytokine concentration [3, 8]: 12.5 pg/mL
- TNF-α cytokine concentration [3, 8]: 31.88 pg/mL
- IFN-γ cytokine concentration [3, 9]: 0 pg/mL
- IL-1 cytokine concentration [3, 9]: 61.52 pg/mL
- IL-2 cytokine concentration [3, 9]: 189.72 pg/mL
- IL-4 cytokine concentration [3, 9]: 32.24 pg/mL
- IL-5 cytokine concentration [3, 9]: 331.87 pg/mL
- IL-6 cytokine concentration [3, 9]: 223.98 pg/mL
- IL-10 cytokine concentration [3, 9]: 872.36 pg/mL
- IL-13 cytokine concentration [3, 9]: 0 pg/mL
- IL-17 cytokine concentration [3, 9]: 0 pg/mL
- IL-21 cytokine concentration [3, 9]: 69.64 pg/mL
- IL-22 cytokine concentration [3, 9]: 76.71 pg/mL
- IL-27 cytokine concentration [3, 9]: 71.85 pg/mL
- TNF-α cytokine concentration [3, 9]: 74.9 pg/mL
- IFN-γ cytokine concentration [3, 10]: 1298.02 pg/mL
- IL-1 cytokine concentration [3, 10]: 167.79 pg/mL
- IL-2 cytokine concentration [3, 10]: 98.57 pg/mL
- IL-4 cytokine concentration [3, 10]: 90.14 pg/mL
- IL-5 cytokine concentration [3, 10]: 242.24 pg/mL
- IL-6 cytokine concentration [3, 10]: 116.16 pg/mL
- IL-10 cytokine concentration [3, 10]: 1255.25 pg/mL
- IL-13 cytokine concentration [3, 10]: 0 pg/mL
- IL-17 cytokine concentration [3, 10]: 79.1 pg/mL
- IL-21 cytokine concentration [3, 10]: 0 pg/mL
- IL-22 cytokine concentration [3, 10]: 57.07 pg/mL
- IL-27 cytokine concentration [3, 10]: 80.09 pg/mL
- TNF-α cytokine concentration [3, 10]: 50.73 pg/mL
